Assay results: patent US20260151518A1, “LEUKOCYTE-SPECIFIC CELL PENETRATING MOLECULES” (Amytrx Therapeutics, Inc., priority 2021, published 2026)

How the values were obtained:
[1] = Blood partition calculation after single administration of [3H]-AMTX-100; assay type: in vivo; parameters: Partition coefficient / Non-plasma compartment: unit not given here; conditions: single intravenous (title), 5 mg/kg, rat
Method: Eight male Sprague Dawley rats each received a single IV administration of [^3H]-AMTX-100 and a terminal sample of whole blood (each approximately 5-10 mL) was collected via cardiac puncture under isofluorane anesthesia from a single rat at the following time points: […]
Whole blood was collected into tubes containing K2-EDTA as anticoagulant. Following collection, an aliquot of whole blood (approximately 4 mL) was retained for analysis of whole blood and white blood cell (WBC) concentrations. The remaining whole blood samples were processed to plasma. Plasma samples were not depleted of white blood cells.

[2] = Pharmacokinetics of [3H]-AMTX-100 after multiple routes of administration; assay type: in vivo, rat; conditions: rat
Method: AMTX-100 was radiolabeled with 3H at lysine residues and injected into Sprague-Dawley rats in a single dose by seven different routes (intravenous, subcutaneous, topical [skin], intratracheal, intraduodenal, esophageal, and oral). The rats were evaluated at various time points, up to 120 hours, by: a) blood samples were taken for pharmacokinetics (PK) by cardiac puncture; b) rats were frozen and sectioned for QWBA and/or micro-auto-radiography and histology; and c) frozen sections were made and freeze dried and exposed to phosphor-storage imaging plates and tissue radioactivity in images was quantified as tissue: blood ratios.
For all PK studies, the following definitions were used: WB=whole blood; Plasma=whole blood depleted of red blood cells; WBCD=whole blood depleted of white blood cells in which the whole blood is passed over a Pall Acrodisc filter (about 60% efficient); WBCs=the cells which bind to, and are washed off, the Pall Acrodisc filter.

CSCC[C@@H]1NC(=O)[C@H](CC(C)C)NC(=O)[C@H](CCCCN)NC(=O)[C@H](CCC(N)=O)CC(=O)[C@H](CCCNC(=N)N)NC(=O)[C@H](CCCCN)NC(=O)[C@H](CCCNC(=N)N)NC(=O)[C@H](CCC(N)=O)NC(=O)[C@H](C(C)C)NC(=O)[C@@H](NC(=O)[C@@H]2CCCN2C(=O)[C@H](C)NC(=O)[C@H](CC(C)C)NC(=O)[C@H](CC(C)C)NC(=O)[C@H](C)NC(=O)[C@H](CC(C)C)NC(=O)[C@H](CC(C)C)NC(=O)[C@@H](NC(=O)[C@H](C)NC(=O)[C@@H]2CCCN2C(=O)[C@H](CC(C)C)NC(=O)[C@H](CC(C)C)NC(=O)[C@H](C)NC(=O)[C@@H](NC(=O)[C@H](C)NC(=O)[C@H](C)N)C(C)C)C(C)C)CSSC[C@@H](C(=O)O)NC(=O)[C@@H]2CCCN2C1=O [[^3H]-AMTX-100] gave a Blood ([1]; 1 h) of 0.081 µg/mL, a Non-plasma compartment ([1]; 1 h) of 11.7 and a Partition coefficient ([1]; 1 h) of 88.3. The Plasma ([1]; 1 h) was 0.110 µg/mL, the Blood ([1]; 2 h) was 0.059^1 μg/mL and the Non-plasma compartment ([1]; 2 h) was 20.3. It also gave a Partition coefficient ([1]; 2 h) of 79.7, a Plasma ([1]; 2 h) of 0.084 µg/mL and a Blood ([1]; 4 h) of 0.054 µg/mL. For the same compound, the Non-plasma compartment ([1]; 4 h) was 24.4, the Partition coefficient ([1]; 4 h) was 75.6 and the Plasma ([1]; 4 h) was 0.068 µg/mL. For the same compound, the Blood ([1]; 8 h) was 0.070 µg/mL, the Non-plasma compartment ([1]; 8 h) was 22.9 and the Partition coefficient ([1]; 8 h) was 77.1. The Plasma ([1]; 8 h) was 0.090 µg/mL, the Blood ([1]; 24 h) was 0.120 µg/mL and the Non-plasma compartment ([1]; 24 h) was 27.0. For the same compound, the Partition coefficient ([1]; 24 h) was 73.0, the Plasma ([1]; 24 h) was 0.146 µg/mL and the Blood ([1]; 48 h) was 0.186 µg/mL. It also gave a Non-plasma compartment ([1]; 48 h) of 28.7, a Partition coefficient ([1]; 48 h) of 71.3 and a Plasma ([1]; 48 h) of 0.221 µg/mL. For the same compound, the “Specific target cells in blood” value [2] was “WBCs and not RBCs are the specific target”, the “Residence time in plasma” value ([2]; Sub-Q, single dose) was greater than 672 h and the Presence in tissue ([2]; after a single dose) was “found in tissue in which WBCs congregate, but not cardiac or skeletal muscle tissue”. The “Entry into the bloodstream” value ([2]; all routes of administration) was “by all routes of administration makes its way into the bloodstream” and the Resistance to degradation ([2]; esophageal administration, L-amino acid version) was “resistant to degradation”.
